In US4716150A, “Synthetic peptides and use thereof in preparing calmodulin antisera” (Vanderbilt University, priority 1985, dated 1987):

Assays:
anti-calmodulin serum = conditions: one antiserum; vertebrate calmodulin residues 137 to 143; cited from earlier work
intact calmodulin [1] = conditions: cited from earlier work
intact calmodulin [2] = test: Injection of immunogen into laboratory rabbits to elicit antisera against calmodulin; type: in vivo; conditions: merely injecting calmodulin into laboratory rabbits
Text: Using one of the rabbit antisera, we proceeded to test peptide segments encompasssing the entire calmodulin molecule to locate one or more immunoreactive sites in the protein. See Van Eldik, L. J. and Watterson D. M. "Reproducible Production of Antiserum against Vertebrate Calmodulin and Determination of the Immunoreactive Site" Journal of Biological Chemistry Volume 256 (9), pp. 4205-4210 (1981). Upon completion of these studies we proposed than an immunoreactive site of calmodulin is contained in an 18 residue region (residues 127-144) within the COOH-terminal domain of calmodulin.
However, although the minimal immunoreactive heptapeptide site of calmodulin met both of the above requirements, we were unable to produce anti-calmodulin sera when we injected laboratory rabbits with a synthetic heptapeptide corresponding to the immunoreactive site of the protein. […] Van Eldik, et al. "Elucidation of a Minimal Immunoreactive Site of Vertebrate Calmodulin" (cited above).

Substance	immunoreactivity with anti-calmodulin serum compared with the entire protein (anti-calmodulin serum)	reactivity of the elicited antibodies (intact calmodulin [1]; antibodies from injected rabbits tested against synthetic heptapeptide and intact calmodulin)	antibody response in rabbits (immunogenicity) (intact calmodulin [1]; laboratory rabbits injected with synthetic heptapeptide)	anti-calmodulin serum titer after injection (intact calmodulin [2])
asparagine-tyrosine-glutamic acid-glutamic acid-phenylalanine-valine-glutamine [synthetic heptapeptide]	as immunoreactive as the entire 148-residue protein	reacted with the synthetic heptapeptide but not with intact calmodulin	elicited an antibody response	–
calmodulin	–	–	–	inability to develop an anti-calmodulin serum of useful titer
